Test results as given in PubChem BioAssay (NCI).
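48-hour exposure; five concentrations; linearly interpolated endpoints. TGI marks complete inhibition of growth.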

Key:
Assay in all cases: inhibition of tumour cell growth, NCI panel, 48 h
SF-295 CNS = system: SF-295 CNS
UACC-62 melanoma = system: UACC-62 melanoma
OVCAR-8 ovarian = system: OVCAR-8 ovarian
BT-549 breast = system: BT-549 breast
SW-620 colon = system: SW-620 colon
SNB-19 CNS = system: SNB-19 CNS
SNB-75 CNS = system: SNB-75 CNS
T-47D breast = system: T-47D breast
RPMI-8226 leukemia = system: RPMI-8226 leukemia
HCC-2998 colon = system: HCC-2998 colon
SK-MEL-5 melanoma = system: SK-MEL-5 melanoma
HS 578T breast = system: HS 578T breast
A549 NSCLC = system: A549 NSCLC
EKVX NSCLC = system: EKVX NSCLC
U251 CNS = system: U251 CNS
HCT-15 colon = system: HCT-15 colon
MDA-MB-231 breast = system: MDA-MB-231 breast
LOX IMVI melanoma = system: LOX IMVI melanoma
NCI-H226 lung = system: NCI-H226 lung
OVCAR-4 ovarian = system: OVCAR-4 ovarian
M14 melanoma = system: M14 melanoma
ACHN renal = system: ACHN renal
NCI-H522 lung = system: NCI-H522 lung
NCI-H23 lung = system: NCI-H23 lung
PC-3 prostate = system: PC-3 prostate
NCI-H460 lung = system: NCI-H460 lung
COLO 205 colon = system: COLO 205 colon
UO-31 renal = system: UO-31 renal
RXF 393 renal = system: RXF 393 renal
MCF7 breast = system: MCF7 breast
SF-268 CNS = system: SF-268 CNS
A498 renal = system: A498 renal
SK-MEL-28 melanoma = system: SK-MEL-28 melanoma
TK-10 renal = system: TK-10 renal
DU-145 prostate = system: DU-145 prostate
NCI/ADR-RES ovarian = system: NCI/ADR-RES ovarian
MDA-MB-435 = system: MDA-MB-435
SK-OV-3 ovarian = system: SK-OV-3 ovarian
HOP-62 NSCLC = system: HOP-62 NSCLC
MALME-3M melanoma = system: MALME-3M melanoma
SF-539 CNS = system: SF-539 CNS
SN12C renal = system: SN12C renal
IGROV1 ovarian = system: IGROV1 ovarian
786-0 renal = system: 786-0 renal
KM12 colon = system: KM12 colon
SR leukemia = system: SR leukemia
OVCAR-5 ovarian = system: OVCAR-5 ovarian
HT29 colon = system: HT29 colon
SK-MEL-2 melanoma = system: SK-MEL-2 melanoma
OVCAR-3 ovarian = system: OVCAR-3 ovarian

Measured: TGI

Cc1cc2c(c(S(=O)(=O)c3ccc(Cl)cc3[N+](=O)[O-])c1)NCCC2
> 100 µM: all assays above
